In US20170183644A1, “DRUG COCKTAIL ANALYSES USING MICROSCALE VORTEX ASSISTED ELECTROPORATION” (President and Fellows of Harvard College, priority 2014, published 2017):
Values belong to the molecule of their own block, whether it stands above or below them.

How the values were obtained:
MDA-MB-231 cells [1] = test: Microfluidic vortex-assisted electroporation drug screening assay, CellTiter-Glo cell viability; format: cell-based; settings: for IC50: microfluidic electroporation, single agent, read-out: Proposed IC50; for effect on cell viability as a single agent: microfluidic assay
Protocol: These cells were incubated in a humidified incubator at 37° C. with […] environment. Cells were harvested for experiments 2 days after the seeding by treating them with 0.25% trypsin-EDTA for 2 minutes. The cells were pelleted by centrifuging for 5 minutes at 200×g and resuspended in the growth media to have a final concentration of 5×10^5 cells/mL. The system utilized the pneumatic flow control unit and the electrical equipment that we previously developed. Their detailed specifications and visualized operational protocols (Yun et al., 2013; Vickers et al., 2014) can be found elsewhere. In brief, the flow control unit independently and promptly pressurizes individual solution vials for rapid solution exchanges through the microfluidic system while the electrical equipment generates high-voltage short pulses across the electroporation chambers on demand. […] Solution vials, individually containing cells, drugs and a growth media for flushing, were mounted into the pneumatic flow control unit, and PEEK tubes from each vial inserted into designated inlet ports in the microfluidic electroporator. The system was flushed with the growth media at the operating pressure of 40 psi (equivalent to a flow rate of 400 μL/minute) for 90 seconds prior to the target cell injection step in order to prime the flow speed required for cell trapping (Hur et al., 2011). Once the desired size and number distribution of trapped cells were attained in each cell trapping vortex, not-trapped cells were removed from the device by switching the active solution port from the cell solution to the flush solution. […] The magnitude, V, the width, Kt, and the frequency of applied electrical pulses were monitored in real-time using an oscilloscope (Agilent, USA). Drug delivery doses were varied by exposing trapped cells to a single drug for incubation durations of 30, 60 and 120 seconds in continuous flow. For dual drug delivery tests, trapped cells were sequentially incubated in individual drugs with various dosage combinations by systematically changing treatment duration ratios of two drugs (e.g., 30:30 seconds, 30:60 seconds or 30:120 seconds). Upon completion of the drug delivery process, treated cells were suspended in the growth media and released from the device for downstream analysis by lowering the operating pressure to 30 psi. Collected cells were seeded in 96 well plates and cultured for 24 to 48 hours prior to the cytotoxicity assays. […] Conventional drug screening assays utilizing well-plates were conducted in parallel to evaluate the performance of the proposed microfluidic system. […] For control experiments using the conventional method, the concentrations of drugs were determined such that cells would be exposed in a well plate for 24 hours to the drug amount that is identical to those used for the microfluidic counterpart. […] The CellTiter-Glo Luminescent Cell Viability Assay (Promega, USA) was used to determine the cytotoxicity of tested drugs. First, the correlation between the luminescent intensity and the number of viable cells for the tested cell line was established from luminescence measurements from 96 well plates containing known-quantity of viable cells (LuMate, Model 4400) (see ESI FIG. 2 for calibration curve). For cytotoxicity studies on cells treated with the drugs, all cells present in the well, regardless their viability, were manually counted prior to adding the CellTiter-Glo reagent to the well. The number of viable cells was determined by identifying the corresponding number of viable cells represented by the measured luminescent intensity from the calibration curve. Viability was determined by taking the ratio between the number of viable cells and the total number of treated cells presented in the well.

Ca-27 squamous carcinoma = Ca-27 squamous carcinoma (Wang et al., 2012); read-out: Literature IC50; cited from earlier work
MDA-MB-231 cells [2] = test: Conventional well-plate drug screening assay, CellTiter-Glo cell viability; format: cell-based; settings: for effect on cell viability as a single agent: conventional assay
Protocol: These cells were incubated in a humidified incubator at 37° C. with 0% CO2 environment. Cells were harvested for experiments 2 days after the seeding by treating them with 0.25% trypsin-EDTA for 2 minutes. […] Conventional drug screening assays utilizing well-plates were conducted in parallel to evaluate the performance of the proposed microfluidic system. […] For control experiments using the conventional method, the concentrations of drugs were determined such that cells would be exposed in a well plate for 24 hours to the drug amount that is identical to those used for the microfluidic counterpart. […] The CellTiter-Glo Luminescent Cell Viability Assay (Promega, USA) was used to determine the cytotoxicity of tested drugs. First, the correlation between the luminescent intensity and the number of viable cells for the tested cell line was established from luminescence measurements from 96 well plates containing known-quantity of viable cells (LuMate, Model 4400) (see ESI FIG. 2 for calibration curve). For cytotoxicity studies on cells treated with the drugs, all cells present in the well, regardless their viability, were manually counted prior to adding the CellTiter-Glo reagent to the well. The number of viable cells was determined by identifying the corresponding number of viable cells represented by the measured luminescent intensity from the calibration curve. Viability was determined by taking the ratio between the number of viable cells and the total number of treated cells presented in the well.

MDA-MB-231 = MDA-MB-231 (Akbos et al., 2005); read-out: Literature IC50; cited from earlier work
[3] = test system: MC38 colon cancer cell line; settings: MC38 colon cancer cell line (Kuriyoma et al., 2000); read-out: Literature IC50; cited from earlier work
[4] = Homo sapiens, MDA-MB-231, well plate, single agent, read-out: Conventional IC50

IC50 (MDA-MB-231 cells [1]; Homo sapiens, MDA-MB-231): 302 µM
IC50 (MDA-MB-231 cells [2]; Homo sapiens, MDA-MB-231, FIG. 2 legend, value matches conventional assay, read-out: IC50 (FIG. 2 legend)): 2000 µM
IC50 (MDA-MB-231 cells [2]; [4]): 2000 µM
Molecule: Nc1ccn([C@@H]2O[C@H](CO)[C@@H](O)C2(F)F)c(=O)n1 [Gemcitabine, gemcitabine]
IC50 (Ca-27 squamous carcinoma): 340 µM

IC50 (MDA-MB-231 cells [1]; Homo sapiens, MDA-MB-231): 1.2 µM
IC50 (MDA-MB-231 cells [2]; Homo sapiens, MDA-MB-231, FIG. 2 legend, values match conventional assay, read-out: IC50 (FIG. 2 legend)): 2 µM
IC50 (MDA-MB-231 cells [2]; [4]): 2 µM
Molecule: CC[C@@]1(O)C(=O)OCc2c1cc1n(c2=O)Cc2cc3c(CN(C)C)c(O)ccc3nc2-1 [Topotecan, topotecan]
effect on cell viability as a single agent (MDA-MB-231 cells [1]): dose-dependently reduced survival
IC50 (MDA-MB-231): 1.1 µM
effect on cell viability as a single agent (MDA-MB-231 cells [2]; single agent): dose-dependently reduced survival

Molecule: O=c1c(O)c(-c2ccc(O)c(O)c2)oc2cc(O)cc(O)c12 [quercetin]
effect on cell viability as a single agent (MDA-MB-231 cells [1]): negligible and dose independent
effect on cell viability as a single agent (MDA-MB-231 cells [1]; listed as Quercetin): negligible cytotoxic effect
effect on cell viability as a single agent (MDA-MB-231 cells [2]; single agent): negligible and dose independent
effect on cell viability as a single agent (MDA-MB-231 cells [2]; single agent, listed as Quercetin): negligible cytotoxic effect

Molecule: bleomycin
IC50 (MDA-MB-231 cells [1]): 0.12 µM
IC50 [3]: 12 µM
IC50 (MDA-MB-231 cells [2]; FIG. 2 legend, values match conventional assay, read-out: IC50 (FIG. 2 legend)): 30 µM
IC50 (MDA-MB-231 cells [2]; well plate, single agent, read-out: Conventional IC50): 20 µM
